Patent US6207393A, “Inhibition of intracellular signal transduction by 14-3-3-binding peptides” (Washington University, priority 1999, dated 2001)
Several values for one entry are separate records, joined by “and”; a condition that tells them apart may be missing. Equal entries are not always repeated. Where a SMILES comes first, the peptide text is derived from it. [ ]: non-standard residue; d: D form. pS = N[C@@H](COP(=O)(O)O)C(=O)O

Assays:
[1] = target: T1, 14-3-3 zeta (Homo sapiens, UniProt P63104); experiment: SPR competitive inhibition of 14-3-3 zeta binding to chip-coupled phosphorylated Raf-259 peptide; settings: 14-3-3 zeta 0.5-1.0 μM; competitor 1-50 μM; relative affinity only
T1 construct: made in house; host or cells: E. coli DH5α (vector pGEX-KT)
T1 sequence (P63104 1-245): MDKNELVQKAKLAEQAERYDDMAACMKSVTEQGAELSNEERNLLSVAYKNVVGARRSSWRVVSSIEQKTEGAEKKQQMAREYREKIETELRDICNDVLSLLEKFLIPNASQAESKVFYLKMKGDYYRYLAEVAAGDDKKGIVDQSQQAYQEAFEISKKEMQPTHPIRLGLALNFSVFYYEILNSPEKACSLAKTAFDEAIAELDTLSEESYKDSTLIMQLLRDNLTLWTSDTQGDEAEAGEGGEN

[2] = target: T2, 14-3-3 beta (Homo sapiens, UniProt P31946); experiment: SPR competitive inhibition of 14-3-3 beta binding to phosphorylated Raf-259 peptide; settings: isoform beta
T2 construct: made in house; host or cells: E. coli DH5α (vector pGEX-KT)
T2 sequence (P31946 1-246): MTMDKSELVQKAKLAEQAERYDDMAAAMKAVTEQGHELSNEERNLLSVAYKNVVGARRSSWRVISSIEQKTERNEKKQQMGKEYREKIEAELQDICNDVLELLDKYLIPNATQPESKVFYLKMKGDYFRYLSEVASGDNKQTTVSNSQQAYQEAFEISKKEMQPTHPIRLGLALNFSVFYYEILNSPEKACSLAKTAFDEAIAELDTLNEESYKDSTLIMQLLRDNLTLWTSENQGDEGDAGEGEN
Description: (§1) The ability of each peptide to inhibit binding of 14-3-3 zeta to the phosphorylated peptide was then tested in a range of concentrations between 1 and 50 μM. 14-3-3 zeta was prepared according to the methods in Example 1 and binding affinities and specificities were determined using the peptides in Table 2. The 14-3-3 zeta fusion proteins (0.5-1.0 μM) were pre-incubated with a given peptide at concentrations between 1 μM and 50 μM. 14-3-3 zeta was then infused across a sensor chip surface which had been previously coupled with the phosphorylated Raf-259 peptide (SEQ ID NO: 4). IC50 values were determined by plotting the concentration of competitor peptide required to achieve a 50% reduction in equilibrium binding.
(§2) There are seven known isoforms of 14-3-3 which form homo- and heterodimers in vivo. If different isoforms of 14-3-3 could bind to proteins with distinct specificities, heterodimeric forms of 14-3-3 might function as modular linker proteins, bringing together different proteins into a single complex. We were, therefore, interested in determining whether different 14-3-3 isoforms recognize phosphoserine in a sequence specific fashion. This hypothesis was tested by expressing and purifying three other 14-3-3 isoforms, eta, beta and tau, and measuring their affinity towards the panel of phosphorylated peptides generated above. Using the Surface Plasmon Resonance method, the "on" and "off" rates for 14-3-3 binding to the phosphorylated Raf-259 peptide were calculated (Table 6).
(§3) Competitive inhibition with the mutated phosphorylated Raf-1 peptides was used to determine whether their specificities were similar (Table 7). In each case, the calculated IC50 s were very similar to those calculated for 14-3-3 zeta.

[3] = target: T3, 14-3-3 eta (Homo sapiens, UniProt Q04917); experiment: Surface plasmon resonance kinetics, 14-3-3 eta binding to phosphorylated Raf-259 peptide; settings: isoform eta
T3 construct: made in house; host or cells: E. coli DH5α (vector pGEX-KT)
T3 sequence (Q04917 1-246): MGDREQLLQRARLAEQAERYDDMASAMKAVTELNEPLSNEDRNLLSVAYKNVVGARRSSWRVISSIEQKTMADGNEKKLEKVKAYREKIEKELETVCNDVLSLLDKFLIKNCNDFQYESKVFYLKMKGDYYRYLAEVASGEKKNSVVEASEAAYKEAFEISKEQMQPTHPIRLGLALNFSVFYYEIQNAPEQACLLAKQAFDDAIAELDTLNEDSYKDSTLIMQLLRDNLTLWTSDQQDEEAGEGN
Description: (§4) Because the surface plasmon resonance detects binding in real time, this method can be used to directly determine the rates of association (kon) and dissociation (koff). For these kinetic measurements, GST/14-3-3 fusion proteins were injected over a range of concentrations between 200 nM and 5 μM. The "on" rate, kon, was determined by calculating dR/dt for the initial linear portion of association using the Biaevaluation software (Pharmacia). Because ligand rebinding to the sensor chip can affect the "off" rate (koff, Panayotou et al. Mol Cell Biol 13:3567-76, 1993 which is incorporated by reference), we measured the "off" rate in the presence of 50 μM free ligand by using the coinject function of the Biacore. The "off" rate measured in the absence of 50 μM free ligand was approximately 10-fold lower.
as §2

[4] = target: T4, 14-3-3 tau (Homo sapiens, UniProt P27348); experiment: SPR competitive inhibition of 14-3-3 tau binding to phosphorylated Raf-259 peptide; settings: isoform tau
T4 construct: made in house; host or cells: E. coli DH5α (vector pGEX-KT)
T4 sequence (P27348 1-245): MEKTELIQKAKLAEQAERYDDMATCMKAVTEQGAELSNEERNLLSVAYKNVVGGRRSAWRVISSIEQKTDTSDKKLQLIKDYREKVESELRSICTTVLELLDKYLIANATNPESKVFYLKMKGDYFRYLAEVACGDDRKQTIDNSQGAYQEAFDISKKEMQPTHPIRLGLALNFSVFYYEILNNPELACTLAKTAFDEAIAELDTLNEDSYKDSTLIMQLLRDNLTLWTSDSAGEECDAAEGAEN
Description: as §1, §2, §3

[5] = target: T1, 14-3-3 zeta; experiment: Surface plasmon resonance, GST-14-3-3 zeta binding to immobilized biotinylated Raf-259 peptide (binding and kinetics); settings: isoform zeta
Description: These experiments were performed using the BIAcore 2000 (Pharmacia). The basic principles and detection methods have been reviewed previously (Jonsson et al. Biotech. 11:620-7, 1991; Jonsson et al. Ann Bio Clin 51:19-26, 1993 which are incorporated by reference). In brief, 5 μl of the biotinylated raf-259 peptide (1 nM) was immobilized onto streptavidin-coated (SA5, Pharmacia) sensor chips at a flow rate of 5 μl/min at 25° C. […] To phosphorylate the immobilized peptides, 5 U of PKA in a buffer containing 200 μM ATP in 50 μl was infused over the chip at a flow rate of 2 μl/min at 30° C.
as §4
The biotinylated, […] Raf-1 peptide (SEQ ID NO: 4) was coupled to avidin coated chip surface to study the kinetics of its binding to 14-3-3 zeta. The association rate was determined to be approximately 2.3×10^4 M^-1×s^-1 and the dissociation rate was determined to be approximately 2.8×10^-3 s^-1. To minimize the effects of protein rebinding to the surface of the sensor chip, the dissociation rate was measured in the presence of 50 μM free phosphorylated Raf-1 peptide.

[6] = target: T3, 14-3-3 eta; experiment: SPR competitive inhibition of 14-3-3 eta binding to phosphorylated Raf-259 peptide; settings: isoform eta
Description: as §1, §2, §3

Compound: CC(C)C[C@H](N)C(=O)N[C@@H](CO)C(=O)N[C@@H](CCC(N)=O)C(=O)N[C@@H](CCCNC(=N)N)C(=O)N[C@@H](CCC(N)=O)C(=O)N[C@@H](CCCNC(=N)N)C(=O)N[C@@H](CO)C(=O)N[C@H](C(=O)N[C@@H](COP(=O)(O)O)C(=O)N[C@H](C(=O)N1CCC[C@H]1C(=O)N[C@@H](CC(N)=O)C(=O)N[C@H](C(=O)N[C@@H](Cc1c[nH]cn1)C(=O)N[C@@H](C)C(=O)O)C(C)C)[C@@H](C)O)[C@@H](C)O [pS-Raf-259] (H-LSQRQRST[pS]TPNVHA-OH)
- IC50 [1]: 6 µM and ~6 µM
- IC50 [2]: 6 µM
- Kd [3]: 0.128 µM
- koff [3]: 0.0029 s⁻¹
- kon [3]: 22600 M⁻¹ s⁻¹
- IC50 [4]: 5 µM
- Kd ([5]; read-out: KD): 0.122 µM
- koff ([5]; read-out: koff): 0.0028 s⁻¹
- kon ([5]; read-out: kon): 23000 M⁻¹ s⁻¹
- IC50 [6]: 5 µM
